Counter-ions that a name gives are not always drawn. Like-named read-outs stand apart in the source and are kept apart here. Each block holds one compound with its values, some of them ahead of it.
What was measured:
triglycerides in yolk = test: Triglycerides in egg yolk, laying-hen feeding trial (Example 2); format: in vivo, laying hens; conditions: control 170.4
Method: (§1) The triglycerides are determined enzymatically via their glycerol content. The triglycerides are cleaved enzymatically by the enzymes lipase and esterase. The resulting glycerol is phosphorylated by ATP to glycerol 3-phosphate in the reaction catalyzed by glycerol kinase GK.
(§2) Another feeding experiment was carried out in analogy to Example 1. In this case the intention was to test not only α- and δ-tocotrienol but also a tocotrienol precursor (4-oxo-γ-tocotrienol) and other terpenoids such as farnesyl acetate, perillyl alcohol, linalool and β-ionone, in laying hens.
(§3) The trial protocol corresponds to that in Example 1 but with the following amendments:
(§4) The number of birds comprised 8 hens per treatment.
(§5) Triglyceride and cholesterol were determined in 4 independent yolk pools(each from 6 eggs) and plasma.

plasma cholesterol [1] = test: Cholesterol in plasma, laying-hen feeding trial (Example 2); format: in vivo, laying hens; conditions: control 125.3
Text: (§6) For the cholesterol determination, the cholesterol esters were cleaved to cholesterol and fatty acid by the action of cholesterol esterase. Free cholesterol is converted by atmospheric oxygen with the involvement of cholesterol oxidase into Δ^4 -cholestenone and hydrogen peroxide. The resulting hydrogen peroxide forms with 4-aminophenazone and phenol through the catalytic action of peroxidase a red dye whose intensity of color is directly proportional to the cholesterol concentration and can be measured at 500 to 550 nm.
as §2, §3, §4
(§7) 4 birds in each case from the control and the high dosages were sacrificed at the end of the trial. After taking blood to obtain plasma, the birds were completely exsanguinated. The liver was then removed and deep frozen until analyzed.
as §5

plasma triglyceride = test: Triglycerides in plasma, laying-hen feeding trial (Example 2); format: in vivo, laying hens; conditions: for Triglycerides, plasma: control 2496; for reduction of plasma triglyceride level: Example 2, maximum
Method: as §1, §2, §3, §4, §7, §5

cholesterol in yolk = test: Cholesterol in egg yolk, laying-hen feeding trial (Example 2); format: in vivo, laying hens; conditions: for Cholesterol, yolk: control 10.23; for trend in yolk cholesterol content: Example 2; for reduction in yolk cholesterol: significant
Text: as §6, §2, §3, §4, §5

[2] = tested on: β-hydroxy-β-methyl-glutaryl (HMG)-CoA reductase; conditions: cited from earlier work
HMG-CoA reductase [3] = conditions: cell culture and rats and mice; cited from earlier work
tumors = conditions: cell culture and rats and mice; cited from earlier work
[4] = tested on: cholesterol content of poultry eggs; conditions: cited from earlier work; for reduction of cholesterol content of poultry eggs: literature (Elkin et al.)
[5] = cited from earlier work
[6] = tested on: cholesterol synthesis in macrophages; conditions: Fuhrmann et al. 1997; cited from earlier work
[7] = Tocopherol and tocotrienol contents in yolk by HPLC (Example 1); format: in vivo, laying hens (Lohmann Selected Leghorn)
Method: (§8) At the start of the trial, the laying hens (Lohmann Selected Leghorn) had been laying for 28 weeks. One treatment group consisted of 10 hens. The birds were initially fed with the various active ingredients for 4 weeks. The eggs were then collected for the analyses. 3 independent yolk pools were formed from 6 eggs in each case and were deep-frozen until analyzed. Total cholesterol and triglycerides in the yolk were analyzed by enzymatic methods. The analyses were carried out as stated in the handbook "Veterinarmedizinische Laboruntersuchungen fur die Diagnose und Verlaufskontrolle" (1985), 3rd edition, published by Boehringer Mannheim GmbH, Mannheim.
Tocopherols and tocotrienols in the yolk pools were determined by HPLC. To do this, the sample is hydrolyzed in aqueous alcoholic medium and extracted several times with diethyl ether. Quantification takes place by comparison with external standards.
Stationary phase: Spherisorb CN 5 μm, 250×4 mm
Mobile phase: n-Hexane with 0.25% i-propanol
Fluorescence detection: 292 nm (extinction) 326 nm (emission)

[8] = tested on: total cholesterol in the yolk; test: Total cholesterol in egg yolk, laying-hen feeding trial (Example 1); format: in vivo, laying hens (Lohmann Selected Leghorn); conditions: 4 weeks
Method: as §8, §6
(§9) The data were subjected to analysis of variance, and differences between means were ranged by the Duncan test.

[9] = tested on: triglycerides in the yolk; test: Triglycerides in egg yolk, laying-hen feeding trial (Example 1); format: in vivo, laying hens (Lohmann Selected Leghorn); conditions: 4 weeks
Method: as §8, §1
glycerol+ATP.revreaction.glycerol 3-phosphate+ADP
The resulting ADP is converted by pyruvate kinase (PK) with phosphoenolpyruvate (PEP) back into ATP, with formation of pyruvate. [drawing 6] Pyruvate is hydrogenated to lactate by lactate dehydrogenase (LDH) with NADH, the NADH being oxidized to NAD. [drawing 7]
The amount of NADH consumed during the reaction is equivalent to the amount of glycerol. NADH is the measured variable and can easily be determined from its absorption at Hg 366 nm, Hg 334 nm or 340 nm.
as §9

plasma cholesterol [10] = conditions: broilers, when cholesterol was fed at the same time; cited from earlier work
HMG-CoA reductase [11] = conditions: broilers, supplementation; cited from earlier work
[12] = both dosages (100 and 1000 mg/kg feed)
[13] = 500 mg/kg feed, significant, complete yolk
[14] = 20 mg/kg feed, after hydrolysis
[15] = 500 mg/kg feed, after hydrolysis
[16] = 1000 mg/kg feed, after hydrolysis

Compound: CC(C)=CCC/C(C)=C/CC/C(C)=C/CCC1(C)CCc2cc(O)cc(C)c2O1 (stereo not shown) [δ-Tocotrienol, δ-tocotrienol]
Triglycerides, yolk (triglycerides in yolk; 50 mg/kg feed): 185.2 mg/g | Triglycerides, yolk (triglycerides in yolk; 500 mg/kg feed): 163.9 mg/g | Cholesterol, plasma (plasma cholesterol [1]; 500 mg/kg feed): 163.0 mg/dL | Triglycerides, plasma (plasma triglyceride; 500 mg/kg feed): 2985 mg/dL | Cholesterol, yolk (cholesterol in yolk; 50 mg/kg feed): 9.25 mg/g | Cholesterol, yolk (cholesterol in yolk; 500 mg/kg feed): 9.23 mg/g | trend in yolk cholesterol content (cholesterol in yolk): trend toward reduced cholesterol contents in yolk

Compound: nicotinate [reference compound]
effect of ester form by comparison with the alcohol and acetate forms ([2]; U.S. Pat. No. 5,217,992): most pronounced

Compound: C=CC(C)(O)CCC=C(C)C (stereo not shown) [Linalool, linalool]
Triglycerides, yolk (triglycerides in yolk; 100 mg/kg feed): 187.5 mg/g | Triglycerides, yolk (triglycerides in yolk; 1000 mg/kg feed): 163.1 mg/g | Cholesterol, plasma (plasma cholesterol [1]; 1000 mg/kg feed): 211.6 mg/dL | Triglycerides, plasma (plasma triglyceride; 1000 mg/kg feed): 1907 mg/dL | inhibition of HMG-CoA reductase (HMG-CoA reductase [3]): inhibit HMG-CoA reductase | inhibition of tumors (tumors): inhibit tumors | Cholesterol, yolk (cholesterol in yolk; 100 mg/kg feed): 8.40 mg/g | Cholesterol, yolk (cholesterol in yolk; 1000 mg/kg feed): 8.97 mg/g | reduction in yolk cholesterol (cholesterol in yolk; [12]): up to 18%

Compound: CC[C@H](C)C(=O)O[C@H]1C[C@@H](C)C=C2C=C[C@H](C)[C@H](CC[C@@H]3C[C@@H](O)CC(=O)O3)[C@H]21 [lovastatin]
reduction of cholesterol content of poultry eggs [4]: 15% | influence on poultry performance parameters, such as the egg output ([5]; in vivo): without influencing

Compound: CC(C)=CCC/C(C)=C/C=C/C(C)=C/C=C/C(C)=C/C=C/C=C(C)/C=C/C=C(C)/C=C/C=C(\C)CCC=C(C)C [lycopene]
inhibition of cholesterol synthesis in macrophages [6]: inhibit cholesterol synthesis in macrophages

Compound: CCC(C)(C)C(=O)O[C@H]1C[C@@H](C)C=C2C=C[C@H](C)[C@H](CC[C@@H]3C[C@@H](O)CC(=O)O3)[C@H]21 [simvastatin]
effect on the cholesterol content in eggs ([4]; literature (Huggett et al.; Beyer and Jensen)): no effect

Compound: C=C(C)[C@H]1CC=C(C)CC1 [d-limonene]
inhibition of HMG-CoA reductase (HMG-CoA reductase [3]): inhibit HMG-CoA reductase | inhibition of tumors (tumors): inhibit tumors

Compound: C=C(C)C1CC=C(CO)CC1 (stereo not shown) [Perillyl alcohol, perillyl alcohol]
Triglycerides, yolk (triglycerides in yolk; 500 mg/kg feed): 188.5 mg/g | Triglycerides, yolk (triglycerides in yolk; 5000 mg/kg feed): 174.4 mg/g | Cholesterol, plasma (plasma cholesterol [1]; 5000 mg/kg feed): 165.3 mg/dL | Triglycerides, plasma (plasma triglyceride; 5000 mg/kg feed): 2197 mg/dL | reduction of plasma triglyceride level (plasma triglyceride): ≤ 25% | Cholesterol, yolk (cholesterol in yolk; 500 mg/kg feed): 9.55 mg/g | Cholesterol, yolk (cholesterol in yolk; 5000 mg/kg feed): 9.53 mg/g | trend in yolk cholesterol content (cholesterol in yolk): trend toward reduced cholesterol contents in yolk

Compound: CC(C)=CCC/C(C)=C/CO [geraniol, reference compound]
inhibition of HMG-CoA reductase (HMG-CoA reductase [3]): inhibit HMG-CoA reductase | inhibition of tumors (tumors): inhibit tumors

Compound: CC(=O)/C=C/C1=C(C)CCCC1(C)C [β-Ionone, β-ionone]
Triglycerides, yolk (triglycerides in yolk; 100 mg/kg feed): 190.7 mg/g | Triglycerides, yolk (triglycerides in yolk; 1000 mg/kg feed): 184.8 mg/g | Cholesterol, plasma (plasma cholesterol [1]; 1000 mg/kg feed): 201.3 mg/dL | Triglycerides, plasma (plasma triglyceride; 1000 mg/kg feed): 1954 mg/dL | reduction of plasma triglyceride level (plasma triglyceride): ≤ 25% | inhibition of HMG-CoA reductase (HMG-CoA reductase [3]): inhibit HMG-CoA reductase | inhibition of tumors (tumors): inhibit tumors | Cholesterol, yolk (cholesterol in yolk; 100 mg/kg feed): 9.03 mg/g | Cholesterol, yolk (cholesterol in yolk; 1000 mg/kg feed): 9.03 mg/g | reduction in yolk cholesterol (cholesterol in yolk; [12]): up to 18%

Compound: CC(C)=CCC/C(C)=C/CC/C(C)=C/CCC1(C)CCc2cc(O)c(C)c(C)c2O1 (stereo not shown) [γ-tocotrienol]
accumulation of γ-tocotrienol in the yolk ([7]; fed as γ-tocotrienol acetate): scarcely any accumulation | γ-tocotrienol detected in the yolk ([7]; high dosage (500 mg/kg feed, as acetate)): 366 µg | relative effect versus α-tocotrienol ([2]; HepG2 cell cultures): about 30 times

α-Tocopherol content in yolk [7, 14]: 545 μg/yolk | α-Tocotrienol content in yolk [7, 14]: 0 μg/yolk | γ-Tocopherol content in yolk [7, 14]: 393 μg/yolk | δ-Tocopherol content in yolk [7, 14]: 57 μg/yolk | δ-Tocotrienol content in yolk [7, 14]: 0 μg/yolk | α-Tocopherol content in yolk [7, 15]: 433 μg/yolk | α-Tocotrienol content in yolk [7, 15]: 0 μg/yolk | γ-Tocopherol content in yolk [7, 15]: 425 μg/yolk | δ-Tocopherol content in yolk [7, 15]: 59 μg/yolk | δ-Tocotrienol content in yolk [7, 15]: 366 μg/yolk
Compound: CC(=O)Oc1cc2c(c(C)c1C)OC(C)(CC/C=C(\C)CC/C=C(\C)CCC=C(C)C)CC2 (racemic) [γ-tocotrienol acetate]
reduction in cholesterol in the yolk [8, 13]: 15% | effect on cholesterol in the yolk ([8]; low dosage, 20 mg/kg feed): no effect | reduction in triglycerides in the yolk [9, 13]: 15% | effect on triglycerides in the yolk ([9]; low dosage, 20 mg/kg feed): no effect

Compound: CC1=C(/C=C/C(C)=C/C=C/C(C)=C/C=C/C=C(C)/C=C/C=C(C)/C=C/C2=C(C)CCCC2(C)C)C(C)(C)CCC1 [β-carotene]
inhibition of cholesterol synthesis in macrophages [6]: inhibit cholesterol synthesis in macrophages

Compound: CC(C)c1c(Br)c(Br)c(-c2ccc(F)cc2)n1CC[C@@H](O)C[C@@H](O)CC(=O)O (relative stereo) [(±)-(R*,R*)-3,4-dibromo-β,δ-dihydroxy-2-(4-fluorophenyl)-5-(1-methylethyl)-1H-pyrrole-1-heptanoic acid, Na salt]
reduction of cholesterol content of poultry eggs [4]: 30% | influence on poultry performance parameters, such as the egg output ([5]; literature (Elkin et al.)): without influencing

Compound: CC(=O)Oc1c(C)c(C)c2c(c1C)CCC(C)(CCCC(C)CCCC(C)CCCC(C)C)O2 (racemic) [vitamin E (all-rac-α-tocopheryl acetate), all-rac-α-tocopheryl acetate, reference compound]
effect on cholesterol in the yolk ([8]; 1000 mg/kg feed): no effect | change in plasma cholesterol (plasma cholesterol [10]): increase in plasma cholesterol | effect on HMG-CoA reductase (HMG-CoA reductase [11]): stimulation of HMG-CoA reductase | α-Tocopherol content in yolk [7, 16]: 23064 μg/yolk | α-Tocotrienol content in yolk [7, 16]: 227 μg/yolk | γ-Tocopherol content in yolk [7, 16]: 188 μg/yolk | δ-Tocopherol content in yolk [7, 16]: 36 μg/yolk | δ-Tocotrienol content in yolk [7, 16]: 0 μg/yolk | α-Tocopherol content in yolk ([7]; 1000 mg/kg feed, control 0.48 mg): 23 mg | effect on γ-tocopherol in the yolk ([7]; high α-tocopherol dosage (1000 mg/kg feed)): reduction in γ-tocopherol in the yolk | effect on triglycerides in the yolk ([9]; 1000 mg/kg feed): no effect

Compound: CC(C)=CCC/C(C)=C/CC/C(C)=C/CCC1(C)CC(=O)c2cc(O)c(C)c(C)c2O1 (stereo not shown) [4-Oxo-γ-tocotrienol, 4-oxo-γ-tocotrienol]
Triglycerides, yolk (triglycerides in yolk; 50 mg/kg feed): 188.3 mg/g | Triglycerides, yolk (triglycerides in yolk; 500 mg/kg feed): 172.0 mg/g | Cholesterol, plasma (plasma cholesterol [1]; 500 mg/kg feed): 166.8 mg/dL | Triglycerides, plasma (plasma triglyceride; 500 mg/kg feed): 4336 mg/dL | Cholesterol, yolk (cholesterol in yolk; 50 mg/kg feed): 9.78 mg/g | Cholesterol, yolk (cholesterol in yolk; 500 mg/kg feed): 8.55 mg/g | reduction in yolk cholesterol (cholesterol in yolk; high dosage (500 mg/kg feed)): up to 18%

Compound: CC(=O)OC/C=C(\C)CC/C=C(\C)CCC=C(C)C [Farnesyl acetate, farnesyl acetate]
Triglycerides, yolk (triglycerides in yolk; 750 mg/kg feed): 177.1 mg/g | Triglycerides, yolk (triglycerides in yolk; 7500 mg/kg feed): 175.9 mg/g | Cholesterol, plasma (plasma cholesterol [1]; 7500 mg/kg feed): 129.3 mg/dL | Triglycerides, plasma (plasma triglyceride; 7500 mg/kg feed): 1929 mg/dL | reduction of plasma triglyceride level (plasma triglyceride): ≤ 25% | Cholesterol, yolk (cholesterol in yolk; 750 mg/kg feed): 10.15 mg/g | Cholesterol, yolk (cholesterol in yolk; 7500 mg/kg feed): 10.23 mg/g

Reference: patent publication US6166067A, “Inhibitors of cholesterol-biosynthesis for reducing the cholesterol content of poultry eggs” (priority 1998, dated 2000)
